The structures appear in SMILES notation.

For the experiment, the system named is A204 cells. Description: Two-way combination growth inhibition, CellTiter-Glo cell viability, 72 h, Loewe additivity analysis. The experiment is classed as cell-based. Particulars: FIG. 1a, compound crossed with itself (A×A, 1×1). On the procedure: Cell lines were purchased from American Type Culture Collection (ATCC), German Collection of Microorganisms and Cell Cultures (DSMZ), and Japanese Collection of Research Bioresources (JCRB). Each line was cultured in its recommended growth medium. Cell line A375sq2 was made in accordance with the procedure set forth in J. Med. Chem. 2009, 52, 6189-6192, footnote 13.
For Examples 1 to 71, cells were seeded into 384-well cell culture plates at initial densities ranging from 300 to 7500 cells per well in a 30 μL volume, depending on the growth rate of the cell line, so that adherent cells would remain at subconfluent densities by the end of the 72-hour treatment period. […] CellTiter-Glo® Luminescent Cell Viability Assay (Promega; Madison, Wis.) was used to determine the number of viable cells based on quantitation of the amount of ATP present, an indicator of metabolically active cells. Luminescence was measured with an EnVision® Multilabel Reader (Perkin Elmer; Waltham, Mass.) for each cell line at time zero (V0) before the addition of compounds, as well as after 72 hours of compound treatment (T72). Growth inhibition (GI) was calculated according to the following equations, where V72 was luminescence of DMSO control at 72 hours and T72 was luminescence of the compound-treated sample: if T72≥V0, then GI=100×(1−((T72−V0)/(V72−V0))); if T72<V0, then […]. […]
Background: ATP-based viability assays read luminescence as a measure of living cells.

Regarding `CC(C)[C@@H](CS(=O)(=O)C(C)C)N1C(=O)[C@@](C)(CC(=O)O)C[C@H](c2cccc(Cl)c2)[C@H]1c1ccc(Cl)cc1` [Compound A, 2-((3R,5R,6S)-5-(3-chlorophenyl)-6-(4-chlorophenyl)-1-((S)-1-(isopropylsulfonyl)-3-methylbutan-2-yl)-3-methyl-2-oxopiperidin-3-yl)acetic acid], the “synergy score for the self-cross combination” value came to 0.621.

The values above are taken from patent US10881648B2, “Combination therapy including an MDM2 inhibitor and one or more additional pharmaceutically active agents for the treatment of cancers” (AMGEN INC., priority 2013, dated 2021).
